Measurements as given in publication PMC5218480 (PLoS ONE, 2017).

Tested on: MV-4-11 cells
Experiment: Gene expression microarray analysis (Affymetrix PrimeView) and GSEA
Format: cell-based, human
Set-up: RFU PODN (11730768_x_at) / Fold change /veh PODN (11730768_x_at) / RFU LINC00158 (11744669_a_at) / Fold change /veh LINC00158 (11744669_a_at) / RFU DUSP10 (11751237_a_at) / Fold change /veh DUSP10 (11751237_a_at) / RFU ID3 (11757404_x_at) / Fold change /veh ID3 (11757404_x_at) / RFU PLEKHG5 (11737974_s_at) / Fold change /veh PLEKHG5 (11737974_s_at) / RFU LRRC4B (11730491_at) / Fold change /veh LRRC4B (11730491_at) / RFU GIMAP4 (11747438_a_at) / Fold change /veh GIMAP4 (11747438_a_at) / RFU KRT8 (11758183_x_at) / Fold change /veh KRT8 (11758183_x_at) / RFU CNN1 (11734310_a_at) / Fold change /veh CNN1 (11734310_a_at) / RFU VPS37D (11726825_at) / Fold change /veh VPS37D (11726825_at) / RFU C10orf10 (11716522_x_at) / Fold change /veh C10orf10 (11716522_x_at) / RFU KIR2DL2 /// KIR2DL4 /// KIR2DL5A /// KIR2DL5B /// KIR2DS1 /// KIR2DS2 /// KIR2DS3 /// KIR2DS4 /// KIR3DL3 /// KIR3DL3 /// KIR3DS1 (11738374_at) / Fold change /veh KIR2DL2 /// KIR2DL4 /// KIR2DL5A /// KIR2DL5B /// KIR2DS1 /// KIR2DS2 /// KIR2DS3 /// KIR2DS4 /// KIR3DL3 /// KIR3DL3 /// KIR3DS1 (11738374_at) / RFU C1QL1 (11718748_at) / Fold change /veh C1QL1 (11718748_at) / RFU TMPRSS4 (11747572_a_at) / Fold change /veh TMPRSS4 (11747572_a_at) / RFU HAMP (11756126_x_at) / Fold change /veh HAMP (11756126_x_at) / RFU RNFT2 (11725882_a_at) / Fold change /veh RNFT2 (11725882_a_at) / RFU NR4A2 (11747474_a_at) / Fold change /veh NR4A2 (11747474_a_at) / RFU ABCC12 (11746883_a_at) / Fold change /veh ABCC12 (11746883_a_at) / RFU TMEM136 (11760407_x_at) / Fold change /veh TMEM136 (11760407_x_at) / RFU CLDN22 /// WWC2 (11732394_at) / Fold change /veh CLDN22 /// WWC2 (11732394_at) / RFU HLA-DPB1 (11760878_x_at) / Fold change /veh HLA-DPB1 (11760878_x_at) / RFU SPINT1 (11716480_a_at) / Fold change /veh SPINT1 (11716480_a_at) / RFU GAP43 (11754022_s_at) / Fold change /veh GAP43 (11754022_s_at) / RFU A4GNT (11735810_at) / Fold change /veh A4GNT (11735810_at) / RFU PRB3 (11715151_x_at) / Fold change /veh PRB3 (11715151_x_at) / RFU TUBB4B (11761932_at) / Fold change /veh TUBB4B (11761932_at) / RFU CAPN14 (11732068_a_at) / Fold change /veh CAPN14 (11732068_a_at) / RFU TMCC2 (11721928_a_at) / Fold change /veh TMCC2 (11721928_a_at) / RFU IRGQ (11745062_a_at) / Fold change /veh IRGQ (11745062_a_at) / RFU FAM174B (11720279_a_at) / Fold change /veh FAM174B (11720279_a_at) / RFU TMPRSS4 (11748680_a_at) / Fold change /veh TMPRSS4 (11748680_a_at) / RFU FAM212B (11763350_a_at) / Fold change /veh FAM212B (11763350_a_at) / RFU PLEKHG5 (11743358_a_at) / Fold change /veh PLEKHG5 (11743358_a_at) / RFU ZSCAN30 (11745921_a_at) / Fold change /veh ZSCAN30 (11745921_a_at) / RFU CMKLR1 (11741424_a_at) / Fold change /veh CMKLR1 (11741424_a_at) / RFU LOC101060620 /// MAPK8IP1 (11723275_at) / Fold change /veh LOC101060620 /// MAPK8IP1 (11723275_at) / RFU SPTSSB (11747773_x_at) / Fold change /veh SPTSSB (11747773_x_at) / RFU PRSS12 (11739890_at) / Fold change /veh PRSS12 (11739890_at) / RFU BIN1 (11741810_x_at) / Fold change /veh BIN1 (11741810_x_at) / RFU WNT11 (11732464_a_at) / Fold change /veh WNT11 (11732464_a_at) / RFU C10orf10 (11716521_a_at) / Fold change /veh C10orf10 (11716521_a_at) / RFU C5orf56 (11738089_at) / Fold change /veh C5orf56 (11738089_at) / RFU CYB561 (11721691_x_at) / Fold change /veh CYB561 (11721691_x_at) / RFU ANKRD19P (11752326_a_at) / Fold change /veh ANKRD19P (11752326_a_at) / RFU OR2T12 /// OR2T33 /// OR2T8 (11738714_s_at) / Fold change /veh OR2T12 /// OR2T33 /// OR2T8 (11738714_s_at) / RFU VCAN (11748164_a_at) / Fold change /veh VCAN (11748164_a_at) / RFU JSRP1 (11732532_at) / Fold change /veh JSRP1 (11732532_at) / RFU KRTAP10-11 (11738290_x_at) / Fold change /veh KRTAP10-11 (11738290_x_at) / RFU MYO3A (11730013_a_at) / Fold change /veh MYO3A (11730013_a_at) / RFU EBF3 (11725865_a_at) / Fold change /veh EBF3 (11725865_a_at) / RFU CAMK2N1 (11719241_x_at) / Fold change /veh CAMK2N1 (11719241_x_at) / RFU C5orf56 (11738088_a_at) / Fold change /veh C5orf56 (11738088_a_at) / RFU OLFML3 (11715873_a_at) / Fold change /veh OLFML3 (11715873_a_at) / RFU LOC100653217 /// NTM (11731650_a_at) / Fold change /veh LOC100653217 /// NTM (11731650_a_at) / RFU MAPK11 (11762145_a_at) / Fold change /veh MAPK11 (11762145_a_at) / RFU FIZ1 (11724087_x_at) / Fold change /veh FIZ1 (11724087_x_at) / RFU OASL (11726364_x_at) / Fold change /veh OASL (11726364_x_at) / RFU SOX15 (11748057_x_at) / Fold change /veh SOX15 (11748057_x_at) / RFU CD79A (11719716_a_at) / Fold change /veh CD79A (11719716_a_at) / RFU HIST1H1D (11736915_at) / Fold change /veh HIST1H1D (11736915_at) / RFU CASKIN2 (11723855_a_at) / Fold change /veh CASKIN2 (11723855_a_at) / RFU LOC730098 (11760151_x_at) / Fold change /veh LOC730098 (11760151_x_at) / RFU OR4N2 (11742367_at) / Fold change /veh OR4N2 (11742367_at) / RFU PRRT2 (11749266_a_at) / Fold change /veh PRRT2 (11749266_a_at) / RFU SNX32 (11753110_a_at) / Fold change /veh SNX32 (11753110_a_at) / RFU CDHR5 (11726645_a_at) / Fold change /veh CDHR5 (11726645_a_at) / RFU RCAN1 (11760418_a_at) / Fold change /veh RCAN1 (11760418_a_at) / RFU FAM167A (11723789_a_at) / Fold change /veh FAM167A (11723789_a_at) / RFU FAM26E (11764081_at) / Fold change /veh FAM26E (11764081_at) / RFU ISYNA1 (11749810_s_at) / Fold change /veh ISYNA1 (11749810_s_at) / RFU ACY1 (11761880_at) / Fold change /veh ACY1 (11761880_at) / RFU 11764098_at / Fold change /veh 11764098_at / RFU SAMD14 (11745864_x_at) / Fold change /veh SAMD14 (11745864_x_at) / RFU NPB (11741838_a_at) / Fold change /veh NPB (11741838_a_at) / RFU TMPRSS6 (11731388_a_at) / Fold change /veh TMPRSS6 (11731388_a_at) / RFU KRTAP10-2 (11738614_at) / Fold change /veh KRTAP10-2 (11738614_at) / RFU ARHGAP8 /// PRR5-ARHGAP8 (11727945_x_at) / Fold change /veh ARHGAP8 /// PRR5-ARHGAP8 (11727945_x_at) / RFU KRTAP5-7 /// NADSYN1 (11734609_at) / Fold change /veh KRTAP5-7 /// NADSYN1 (11734609_at) / RFU RASL12 (11751679_a_at) / Fold change /veh RASL12 (11751679_a_at) / RFU CDKN2B (11736163_a_at) / Fold change /veh CDKN2B (11736163_a_at) / RFU PRF1 (11729649_at) / Fold change /veh PRF1 (11729649_at) / RFU, ZNF638 /// ZNF638-IT1 / Fold change vs veh, ZNF638 /// ZNF638-IT1 / RFU, PANK3 / Fold change vs veh, PANK3 / RFU, SH3YL1 / Fold change vs veh, SH3YL1 / RFU, ZEB2 / Fold change vs veh, ZEB2 / RFU, NRIP1 / Fold change vs veh, NRIP1 / RFU, PTTG1IP / Fold change vs veh, PTTG1IP / RFU, CAPN2 / Fold change vs veh, CAPN2 / RFU, MED14 / Fold change vs veh, MED14 / RFU, SNORA58 / Fold change vs veh, SNORA58 / RFU, C1orf63 / Fold change vs veh, C1orf63 / RFU, LRRFIP1 / Fold change vs veh, LRRFIP1 / RFU, NDUFAF7 / Fold change vs veh, NDUFAF7 / RFU, SLC12A2 / Fold change vs veh, SLC12A2 / RFU, IBTK / Fold change vs veh, IBTK / RFU, ESF1 / Fold change vs veh, ESF1 / Fold change vs veh, TMEM50B / RFU, TAOK1 / Fold change vs veh, TAOK1 / RFU, ACBD3 / Fold change vs veh, ACBD3 / RFU, TMA16 / Fold change vs veh, TMA16 / RFU, RWDD3 / Fold change vs veh, RWDD3 / RFU, BCAT1 / Fold change vs veh, BCAT1 / RFU, EDEM3 / Fold change vs veh, EDEM3 / RFU, TMEM33 / Fold change vs veh, TMEM33 / RFU, WDR75 / Fold change vs veh, WDR75 / RFU, AHCTF1 / Fold change vs veh, AHCTF1 / RFU, TFRC / Fold change vs veh, TFRC / RFU, ZDHHC17 / Fold change vs veh, ZDHHC17 / RFU, NOM1 / Fold change vs veh, NOM1 / RFU, ARL8B / Fold change vs veh, ARL8B / RFU, ZBTB11 / Fold change vs veh, ZBTB11 / RFU, TAMM41 / Fold change vs veh, TAMM41 / RFU, KIAA1704 /// LOC100996395 / Fold change vs veh, KIAA1704 /// LOC100996395 / RFU, ING1 / Fold change vs veh, ING1 / RFU, TRMT61B / Fold change vs veh, TRMT61B / RFU, FUBP3 / Fold change vs veh, FUBP3 / RFU, TP53 / Fold change vs veh, TP53 / RFU, TNKS2 / Fold change vs veh, TNKS2 / RFU, ZFP14 / Fold change vs veh, ZFP14 / RFU, ACTR2 / Fold change vs veh, ACTR2 / RFU, PPP3R1 / Fold change vs veh, PPP3R1 / RFU, PIK3R1 / Fold change vs veh, PIK3R1 / RFU, HNRNPA1 / Fold change vs veh, HNRNPA1 / RFU, RNF170 / Fold change vs veh, RNF170 / RFU, ZNF28 / Fold change vs veh, ZNF28 / RFU, RNGTT / Fold change vs veh, RNGTT / RFU, OGT / Fold change vs veh, OGT / RFU, BRD1 / Fold change vs veh, BRD1 / RFU, MARS / Fold change vs veh, MARS / RFU, ZNF655 / Fold change vs veh, ZNF655 / RFU, FAHD1 / Fold change vs veh, FAHD1 / RFU, BDP1 / Fold change vs veh, BDP1 / RFU, LRRCC1 / Fold change vs veh, LRRCC1 / RFU, ARID1A / Fold change vs veh, ARID1A / RFU, ZNF146 / Fold change vs veh, ZNF146 / RFU, ZNF330 / Fold change vs veh, ZNF330 / RFU, GPN3 / Fold change vs veh, GPN3 / RFU, C9orf123 / Fold change vs veh, C9orf123 / RFU, N4BP2L2 / Fold change vs veh, N4BP2L2 / RFU, ARFIP1 / Fold change vs veh, ARFIP1 / RFU, FAM179B / Fold change vs veh, FAM179B / RFU, BCL10 / Fold change vs veh, BCL10 / RFU, UHRF1BP1L / Fold change vs veh, UHRF1BP1L / RFU, BET1 / Fold change vs veh, BET1 / RFU, CNOT2 / Fold change vs veh, CNOT2 / RFU, ZNF268 / Fold change vs veh, ZNF268 / Fold change vs veh, ZNF507 / RFU, DGCR2 / Fold change vs veh, DGCR2 / RFU, WDSUB1 / Fold change vs veh, WDSUB1 / Fold change vs veh, HSP90B1 /// MIR3652 / RFU, ADSS / Fold change vs veh, ADSS / RFU, GK / Fold change vs veh, GK / RFU, ZNF148 / Fold change vs veh, ZNF148 / RFU, TAF9 / Fold change vs veh, TAF9 / RFU, SLC1A5 / Fold change vs veh, SLC1A5 / RFU, SLMO2 / Fold change vs veh, SLMO2 / RFU, ABCC4 / Fold change vs veh, ABCC4 / RFU, LOC101060439 /// RAP1B / Fold change vs veh, LOC101060439 /// RAP1B / RFU, RFX7 / Fold change vs veh, RFX7 / RFU, GTPBP10 / Fold change vs veh, GTPBP10 / RFU, CNEP1R1 / Fold change vs veh, CNEP1R1 / RFU, BIVM-ERCC5 /// ERCC5 / Fold change vs veh, BIVM-ERCC5 /// ERCC5 / RFU, ILF3 / Fold change vs veh, ILF3 / RFU 11762660_at / Fold change /veh 11762660_at / RFU VCAN (11757783_s_at) / Fold change /veh VCAN (11757783_s_at) / RFU DDX43 (11728927_at) / Fold change /veh DDX43 (11728927_at) / RFU KRT8 (11758188_x_at) / Fold change /veh KRT8 (11758188_x_at) / RFU NKD1 (11759106_at) / Fold change /veh NKD1 (11759106_at) / RFU SRD5A1 (11742802_a_at) / Fold change /veh SRD5A1 (11742802_a_at) / RFU TPSAB1 /// TPSB2 (11721975_s_at) / Fold change /veh TPSAB1 /// TPSB2 (11721975_s_at) / RFU GSTM3 (11746129_a_at) / Fold change /veh GSTM3 (11746129_a_at) / RFU IL23R (11737362_x_at) / Fold change /veh IL23R (11737362_x_at) / RFU TMEM51 (11727254_a_at) / Fold change /veh TMEM51 (11727254_a_at) / RFU PIWIL2 (11732686_x_at) / Fold change /veh PIWIL2 (11732686_x_at) / RFU ORM1 (11744905_x_at) / Fold change /veh ORM1 (11744905_x_at) / RFU CCDC152 (11743942_at) / Fold change /veh CCDC152 (11743942_at) / RFU ECM1 (11717891_a_at) / Fold change /veh ECM1 (11717891_a_at) / RFU IL23R (11748794_a_at) / Fold change /veh IL23R (11748794_a_at) / RFU TNFAIP8L3 (11732012_x_at) / Fold change /veh TNFAIP8L3 (11732012_x_at) / RFU MBOAT4 (11741988_at) / Fold change /veh MBOAT4 (11741988_at) / RFU 11764193_at / Fold change /veh 11764193_at / RFU TMEM53 (11763286_at) / Fold change /veh TMEM53 (11763286_at) / RFU MAGEB2 (11727129_at) / Fold change /veh MAGEB2 (11727129_at) / RFU TMEM200A (11744735_a_at) / Fold change /veh TMEM200A (11744735_a_at) / RFU CCDC152 (11751479_a_at) / Fold change /veh CCDC152 (11751479_a_at) / RFU FAM211A (11726209_a_at) / Fold change /veh FAM211A (11726209_a_at) / RFU RGS16 (11746705_a_at) / Fold change /veh RGS16 (11746705_a_at) / RFU VCAN (11755009_s_at) / Fold change /veh VCAN (11755009_s_at) / RFU RHOB (11743442_s_at) / Fold change /veh RHOB (11743442_s_at) / RFU RGS16 (11720943_a_at) / Fold change /veh RGS16 (11720943_a_at) / RFU RGS16 (11720944_at) / Fold change /veh RGS16 (11720944_at) / RFU, VPS4B / Fold change vs veh, VPS4B / RFU, CREB1 / Fold change vs veh, CREB1 / RFU, DNAJC13 / Fold change vs veh, DNAJC13 / RFU, GNAQ / Fold change vs veh, GNAQ / RFU, CDK5R1 / Fold change vs veh, CDK5R1 / RFU, ZRANB3 / Fold change vs veh, ZRANB3 / RFU, CUL4A / Fold change vs veh, CUL4A / RFU, CCNY / Fold change vs veh, CCNY / RFU, UFL1 / Fold change vs veh, UFL1 / RFU, COG3 / Fold change vs veh, COG3 / RFU, DIAPH2 / Fold change vs veh, DIAPH2 / RFU, SKA2 / Fold change vs veh, SKA2 / RFU, AFF3 / Fold change vs veh, AFF3 / RFU, LMF1 / Fold change vs veh, LMF1 / RFU, IPO11 / Fold change vs veh, IPO11 / RFU, DFFB / Fold change vs veh, DFFB / RFU, FOXP1 / Fold change vs veh, FOXP1 / RFU, CARD8 / Fold change vs veh, CARD8 / RFU, STRN3 / Fold change vs veh, STRN3 / RFU, ADK / Fold change vs veh, ADK / RFU, RASSF2 / Fold change vs veh, RASSF2 / RFU, WIPF1 / Fold change vs veh, WIPF1 / RFU, LARP1B / Fold change vs veh, LARP1B / RFU, RASA1 / Fold change vs veh, RASA1 / RFU, RB1 / Fold change vs veh, RB1 / RFU, PPFIA1 / Fold change vs veh, PPFIA1 / RFU, MAT2A / Fold change vs veh, MAT2A / RFU, CCT5 / Fold change vs veh, CCT5 / RFU, WDR92 / Fold change vs veh, WDR92 / RFU, CUX1 / Fold change vs veh, CUX1 / RFU, TTC7A / Fold change vs veh, TTC7A / RFU, TMEM135 / Fold change vs veh, TMEM135 / RFU, DEPTOR / Fold change vs veh, DEPTOR / RFU, CPM / Fold change vs veh, CPM / RFU, DNAJB6 / Fold change vs veh, DNAJB6 / RFU, CACNA2D3 / Fold change vs veh, CACNA2D3 / RFU, DTX4 / Fold change vs veh, DTX4 / RFU, TFCP2 / Fold change vs veh, TFCP2 / RFU, GMCL1 /// GMCL1P1 / Fold change vs veh, GMCL1 /// GMCL1P1 / RFU, AEBP2 / Fold change vs veh, AEBP2 / RFU, SNHG1 /// SNORD22 /// SNORD25 /// SNORD26 /// SNORD27 /// SNORD28 /// SNORD29 /// SNORD31 / Fold change vs veh, SNHG1 /// SNORD22 /// SNORD25 /// SNORD26 /// SNORD27 /// SNORD28 /// SNORD29 /// SNORD31 / Fold change (Aza/veh), C12orf56 (ProbeSet 11735607_a_at) / Fold change (ACY-1035/veh), C12orf56 (ProbeSet 11735607_a_at) / Fold change (Aza/veh), FGFR1OP (ProbeSet 11751329_s_at) / Fold change (ACY-1035/veh), FGFR1OP (ProbeSet 11751329_s_at) / Fold change (Aza/veh), VPS36 (ProbeSet 11739960_a_at) / Fold change (ACY-1035/veh), VPS36 (ProbeSet 11739960_a_at) / RFU SYPL1 (11715823_x_at) / Fold change /veh SYPL1 (11715823_x_at) / RFU IGFBP7 (11715501_s_at) / Fold change /veh IGFBP7 (11715501_s_at) / RFU REEP3 (11722064_at) / Fold change /veh REEP3 (11722064_at) / RFU IGLL1 (11728026_x_at) / Fold change /veh IGLL1 (11728026_x_at): dose or concentration left out as unconfirmed
Conditions: MV-4-11 cells, 48 hours

In the case of `Nc1ccc(-c2cccs2)cc1NC(=O)c1ccc2c(c1)cc(C1CC1)n2CCN1CCOCC1` [ACY-1035], the “RFU CNN1 (11734310_a_at)” value is reported as 26.40 RFU.
